{"source": "patent US12478643B2", "about": "“Compositions and methods for the prevention or treatment of rheumatoid arthritis” (Rhode Island Hospital, priority 2021, dated 2025)", "origin": "cited, not measured here", "key": {"[1]": {"target": "T1, SHIP1 (Homo sapiens, UniProt Q92835)", "T1 sequence (Q92835 1-1189)": "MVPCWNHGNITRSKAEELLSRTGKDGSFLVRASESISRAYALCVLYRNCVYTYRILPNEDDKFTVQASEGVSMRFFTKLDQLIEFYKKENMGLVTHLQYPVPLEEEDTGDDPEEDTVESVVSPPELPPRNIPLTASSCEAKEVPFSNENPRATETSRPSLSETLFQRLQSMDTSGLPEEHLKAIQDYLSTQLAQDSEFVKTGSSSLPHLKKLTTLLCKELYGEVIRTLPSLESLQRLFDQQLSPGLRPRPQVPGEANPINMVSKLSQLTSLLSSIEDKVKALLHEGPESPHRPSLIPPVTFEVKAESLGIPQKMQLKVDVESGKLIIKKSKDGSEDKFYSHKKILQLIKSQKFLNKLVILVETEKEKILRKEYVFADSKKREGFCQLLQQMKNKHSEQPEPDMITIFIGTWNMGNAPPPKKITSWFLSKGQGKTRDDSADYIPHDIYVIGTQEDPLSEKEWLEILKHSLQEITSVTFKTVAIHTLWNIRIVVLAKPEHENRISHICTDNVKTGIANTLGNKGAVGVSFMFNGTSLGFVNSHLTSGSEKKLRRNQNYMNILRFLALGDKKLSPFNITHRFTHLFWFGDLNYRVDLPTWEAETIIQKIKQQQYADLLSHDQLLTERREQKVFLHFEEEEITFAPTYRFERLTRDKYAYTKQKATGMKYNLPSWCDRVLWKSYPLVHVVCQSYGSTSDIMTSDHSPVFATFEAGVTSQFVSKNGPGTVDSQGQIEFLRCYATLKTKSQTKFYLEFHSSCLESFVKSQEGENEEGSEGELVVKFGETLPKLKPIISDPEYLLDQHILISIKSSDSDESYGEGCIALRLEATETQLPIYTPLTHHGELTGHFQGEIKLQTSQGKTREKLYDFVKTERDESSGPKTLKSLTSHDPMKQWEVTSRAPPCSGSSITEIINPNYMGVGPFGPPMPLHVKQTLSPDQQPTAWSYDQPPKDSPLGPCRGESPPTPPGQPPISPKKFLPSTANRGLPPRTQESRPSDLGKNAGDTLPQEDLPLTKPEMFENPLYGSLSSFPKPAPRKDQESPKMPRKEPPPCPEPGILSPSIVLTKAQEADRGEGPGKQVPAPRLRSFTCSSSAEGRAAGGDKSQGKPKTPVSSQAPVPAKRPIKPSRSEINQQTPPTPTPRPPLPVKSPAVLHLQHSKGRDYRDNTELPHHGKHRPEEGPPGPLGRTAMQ", "details": "at 100 μM; cited from earlier work"}, "[2]": {"target": "T2, SHIP2 (Homo sapiens, UniProt O15357)", "T2 sequence (O15357 1-1258)": "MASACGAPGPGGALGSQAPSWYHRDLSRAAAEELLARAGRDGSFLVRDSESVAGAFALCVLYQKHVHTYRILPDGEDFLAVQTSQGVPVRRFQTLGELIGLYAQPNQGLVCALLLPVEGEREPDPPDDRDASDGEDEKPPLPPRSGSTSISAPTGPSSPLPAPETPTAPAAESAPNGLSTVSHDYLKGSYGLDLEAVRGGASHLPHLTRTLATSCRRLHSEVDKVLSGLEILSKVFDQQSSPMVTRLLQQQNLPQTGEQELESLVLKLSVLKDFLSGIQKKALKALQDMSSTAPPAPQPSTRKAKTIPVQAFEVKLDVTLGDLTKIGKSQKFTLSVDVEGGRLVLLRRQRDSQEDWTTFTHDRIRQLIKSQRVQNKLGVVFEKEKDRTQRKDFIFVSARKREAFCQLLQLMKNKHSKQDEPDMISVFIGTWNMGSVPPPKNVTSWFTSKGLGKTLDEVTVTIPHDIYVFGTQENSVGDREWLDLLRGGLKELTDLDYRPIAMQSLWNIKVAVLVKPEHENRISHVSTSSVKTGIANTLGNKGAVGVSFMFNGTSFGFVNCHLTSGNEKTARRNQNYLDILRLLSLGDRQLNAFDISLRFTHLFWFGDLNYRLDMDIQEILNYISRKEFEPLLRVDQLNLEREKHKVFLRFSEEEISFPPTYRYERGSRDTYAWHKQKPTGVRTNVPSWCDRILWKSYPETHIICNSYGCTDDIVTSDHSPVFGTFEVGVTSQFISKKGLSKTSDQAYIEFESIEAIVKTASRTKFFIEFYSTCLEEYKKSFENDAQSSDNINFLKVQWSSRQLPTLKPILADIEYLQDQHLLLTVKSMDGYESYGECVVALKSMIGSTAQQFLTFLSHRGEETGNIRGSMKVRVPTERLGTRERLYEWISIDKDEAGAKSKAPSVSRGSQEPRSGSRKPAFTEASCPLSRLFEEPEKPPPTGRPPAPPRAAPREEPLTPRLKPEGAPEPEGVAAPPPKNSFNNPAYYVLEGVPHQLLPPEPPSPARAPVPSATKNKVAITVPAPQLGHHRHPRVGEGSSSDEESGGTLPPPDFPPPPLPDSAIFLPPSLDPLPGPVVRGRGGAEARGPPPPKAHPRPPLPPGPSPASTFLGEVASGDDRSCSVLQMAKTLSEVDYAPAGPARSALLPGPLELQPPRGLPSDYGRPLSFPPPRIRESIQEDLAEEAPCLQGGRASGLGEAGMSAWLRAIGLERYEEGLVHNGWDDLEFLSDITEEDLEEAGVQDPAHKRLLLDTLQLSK", "details": "at 100 μM; cited from earlier work"}, "[3]": {"target": "T1, SHIP1"}, "[4]": {"details": "Table 1; read-out: IC50 SHIP1; cited from earlier work"}}, "note": "Like-named read-outs stand apart in the source and are kept apart here.", "data": [{"smiles": "CSc1ccc2c(c1)c(CCN)c(C)n2Cc1ccccc1Cl", "note": "[Compound 28]", "values": [{"measurement": "inhibition of SHIP1 activity", "setting": "[1]", "result": "approximately 70%"}, {"measurement": "inhibition of SHIP2", "setting": "[2]", "result": 50, "unit": "%"}]}, {"smiles": "CC12CCCC1C1CCC3CC(N)C(N)CC3(C)C1CC2", "note": "(centres unmarked) [Compound K161]", "values": [{"measurement": "IC50", "setting": "[3]; [4]", "result": 6, "unit": "µM"}]}, {"smiles": "CC12CCCC1C1CCC3CC(N)CCC3(C)C1CC2", "note": "(centres unmarked) [Compound K118]", "values": [{"measurement": "IC50", "setting": "[3]; read-out: IC50 SHIP1; Table 1; cited from earlier work", "result": 16, "unit": "µM"}]}, {"smiles": "C[C@H](NC(=O)c1sccc1OCc1ccc(Cl)cc1)c1ccccc1", "note": "[AS194490]", "values": [{"measurement": "IC50", "setting": "[3]; [4]", "result": 13, "unit": "µM"}]}, {"smiles": "CC[C@H]1CC[C@H]2[C@@H]3C[C@@H](O)[C@@]4(O)C[C@H](N)CC[C@]4(C)[C@H]3CC[C@]12C", "note": "[Compound K116]", "values": [{"measurement": "IC50", "setting": "[3]; [4]", "result": "1.5 to 6", "unit": "µM"}]}, {"smiles": "O[C@H](c1cc(-c2ccccc2)nc2c1ccc1ccccc12)[C@@H]1CCCCN1", "note": "[Compound 26]", "values": [{"measurement": "inhibition of SHIP1 activity", "setting": "[1]", "result": "completely inhibited"}, {"measurement": "inhibition of SHIP2", "setting": "[2]", "result": "approximately 60%"}]}, {"smiles": "O[C@H](c1cc(C2C3CC4CC(C3)CC2C4)nc2c(Cl)cc(Cl)cc12)[C@@H]1CCCCN1", "note": "(some centres unmarked) [Compound 27]", "values": [{"measurement": "inhibition of SHIP1 activity", "setting": "[1]", "result": "completely inhibited"}, {"measurement": "inhibition of SHIP2", "setting": "[2]", "result": 90, "unit": "%"}]}, {"smiles": "CC12CCCC1C1CCC3CC(N)CCC3(C)C1CC2", "note": "(centres unmarked) [Compound K185]", "values": [{"measurement": "IC50", "setting": "[3]; [4]", "result": 18, "unit": "µM"}]}]}
